# Assay results: ChEMBL document CHEMBL3875176, “Synthesis and evaluation of in vitro antiproliferative activity of new ethyl 3-(arylethynyl)quinoxaline-2-carboxylate and pyrido[4,3-b]quinoxalin-1(2H)-one derivatives” (Eur J Med Chem, 2016)
# Key:
# [1] = Antiproliferative activity against human A549 cells after 72 hrs by MTT assay; assay type: functional, cell-based; settings: A549, 72 h
# [2] = Antiproliferative activity against human U87MG cells after 72 hrs by MTT assay; assay type: functional, cell-based, U-87MG ATCC; settings: U-87 MG
SMILES,IC50 [1] [µM],IC50 [2] [µM]
CCOC(=O)c1nc2ccccc2nc1C#Cc1ccccc1,3.3,3.3
O=c1c2nc3ccccc3nc2cc(-c2ccccc2)n1-c1ccccc1,46.4,21.3
Cc1ccc(-c2cc3nc4ccccc4nc3c(=O)n2-c2ccccc2)cc1,39.6,23.7
CCOC(=O)c1nc2ccccc2nc1C#Cc1ccccc1OC,7.9,11.6
CCOC(=O)c1nc2ccccc2nc1C#CC1CC1,7.6,6.2
CCOC(=O)c1nc2ccccc2nc1C#Cc1ccccc1C,27,31.6
CCOC(=O)c1nc2ccccc2nc1C#Cc1cccc(F)c1,3,1.9
CCOC(=O)c1nc2ccccc2nc1C#Cc1ccc(C)cc1,3.3,3.3
CCOC(=O)c1nc2ccccc2nc1C#Cc1cccc(C)c1,6.5,5.5
O=c1c2nc3ccccc3nc2cc(-c2ccccc2)n1-c1ccc(Cl)cc1,43,34.6
CCOC(=O)c1nc2ccccc2nc1C#CC1CCCC1,11.2,11.4
